The text below walks through data of patent US11247947B2, “Method of high-pressure purification of [f-18]FEONM” (Institute of Nuclear Energy Research, Atomic Energy …, priority 2019, dated 2022).

The structures appear in SMILES notation.

Data set [1] in a line: shake-flask lipophilicity (Log P) detection. It counts as physicochemical. The following applies: for Log P: shake-flask gold standard detection. The source says:
Besides, the present invention further designs a novel naphthol analogue, [F-18]FEONM, with lipophilicity increased. This is consistent with the concept of the structure design for the present invention. By adding a —C2H4O— functional group to a F-18 end, the lipophilicity of [F-18]FEONM is increased to obtain a potential novel brain imaging agent. The present invention develops the high-pressure isolation and purification to achieve the purpose of purification of [F-18]FEONM without toxic compounds.

Data set [2] relates to P301S/PS19 transgenic mice. Nature of the data set: brain uptake biodistribution of [F-18]FEONM in P301S/PS19 transgenic mice. It counts as in vivo. The following applies: 12~13 month-old P301S/PS19 transgenic mice; product purified through an alumina solid-phase extraction column; FIG. 2.

Usually Log P stands for a log measure of how a compound divides between an organic and an aqueous phase. A low value points to lower lipophilicity.

Turning to `CC(=C(C#N)C#N)c1ccc2cc(N(C)CC[18F])ccc2c1` [[F-18]FDDNP, reference compound], the lipophilicity (Log P) in data set [1] worked out at 1.93 ± 0.10.

`CC(=C(C#N)C#N)c1ccc2cc(N(C)CCOCCF)ccc2c1` [[F-18]FEONM]: in data set [1] (same shake-flask gold standard detection), the “lipophilicity compared with [F-18]FDDNP” value is “higher than [F-18]FDDNP”. Moreover, the “Log P” value in data set [1] is recorded as 2.20 ± 0.17. Moreover, the “brain uptake biodistribution ratios (result in words)” value in data set [2] is listed as “effective to Alzheimer disease stages”.
